The results in this text go back to ChEMBL document CHEMBL4507288 (2021).

Experiment [1] addresses 5-hydroxytryptamine receptor 1A (Homo sapiens, UniProt P08908). The experiment in a line: GPCRScan assay: inhibition of 5-HT1A. Also on record: radioligand conc. used [nm] 0.5 – 1.0, parental cells stable CHO.
Experiment [2] deals with 5-hydroxytryptamine receptor 2C (Homo sapiens, UniProt P28335). The experiment in a line: GPCRScan assay: inhibition of 5-HT2C. Also on record: radioligand conc. used [nm] 1.0 – 2.5, parental cells HEK T.
Experiment [3] relates to Proto-oncogene tyrosine-protein kinase receptor Ret (Homo sapiens), P07949 [V804L]. As to conditions: Compound concentration 1000.0 nM.
In experiment [4] the target is Serine/threonine-protein kinase Nek7 (Homo sapiens) (UniProt Q8TDX7). The settings on record: Compound concentration 1000.0 nM.
Experiment [5] concerns the target Serine/threonine-protein kinase SIK1 (Homo sapiens) (UniProt P57059). As to conditions: Compound concentration 1000.0 nM.
In experiment [6] the target is Dual specificity mitogen-activated protein kinase kinase 4 (Homo sapiens) (UniProt P45985). The settings on record: Compound concentration 1000.0 nM.
Experiment [7] concerns the target Testis-specific serine/threonine-protein kinase 3 (Homo sapiens) (UniProt Q96PN8). The settings on record: Compound concentration 1000.0 nM.
In experiment [8] the target is Calcium/calmodulin-dependent protein kinase type II subunit gamma (Homo sapiens) (UniProt Q13555). As to conditions: Compound concentration 1000.0 nM.
Experiment [9] has as its target Serine/threonine-protein kinase RIO1 (Homo sapiens) (UniProt Q9BRS2). The settings on record: Compound concentration 1000.0 nM.
The target of experiment [10] is Death-associated protein kinase 1 (Homo sapiens) (UniProt P53355). The settings on record: Compound concentration 1000.0 nM.
Experiment [11] deals with Mast/stem cell growth factor receptor Kit (Homo sapiens) (UniProt P10721). The settings on record: Compound concentration 1000.0 nM.
For experiment [12], the target named is Calcium/calmodulin-dependent protein kinase type II subunit delta (Homo sapiens) (UniProt Q13557). The settings on record: Compound concentration 1000.0 nM.
Experiment [13] addresses Ephrin type-A receptor 5 (Homo sapiens) (UniProt P54756). As to conditions: Compound concentration 1000.0 nM.
For experiment [14], the target named is Mitogen-activated protein kinase kinase kinase 15 (Homo sapiens) (UniProt Q6ZN16). As to conditions: Compound concentration 1000.0 nM.
In experiment [15] the target is Bone morphogenetic protein receptor type-1B (Homo sapiens) (UniProt O00238). The settings on record: Compound concentration 1000.0 nM.
For experiment [16], the target named is RAC-beta serine/threonine-protein kinase (Homo sapiens) (UniProt P31751). As to conditions: Compound concentration 1000.0 nM.
Experiment [17] addresses Aurora kinase A (Homo sapiens) (UniProt O14965). As to conditions: Compound concentration 1000.0 nM.
In experiment [18] the target is Mitogen-activated protein kinase 4 (Homo sapiens) (UniProt P31152). The settings on record: Compound concentration 1000.0 nM.
Experiment [19] has as its target Tyrosine-protein kinase Fgr (Homo sapiens) (UniProt P09769). The settings on record: Compound concentration 1000.0 nM.
Experiment [20] concerns Epidermal growth factor receptor (Homo sapiens), P00533 [T790M]. The settings on record: Compound concentration 1000.0 nM.
Experiment [21] deals with Mitogen-activated protein kinase 11 (Homo sapiens) (UniProt Q15759). The settings on record: Compound concentration 1000.0 nM.
Experiment [22] deals with Receptor-type tyrosine-protein kinase FLT3 (Homo sapiens), P36888 [UNDEFINED MUTATION]. As to conditions: Compound concentration 1000.0 nM.
The target of experiment [23] is Cyclin-dependent kinase-like 3 (Homo sapiens) (UniProt Q8IVW4). The settings on record: Compound concentration 1000.0 nM.
The target in experiment [24] is Serine/threonine-protein kinase LATS1 (Homo sapiens) (UniProt O95835). The settings on record: Compound concentration 1000.0 nM.
Experiment [25] addresses G protein-coupled receptor kinase 4 (Homo sapiens) (UniProt P32298). As to conditions: Compound concentration 1000.0 nM.
Experiment [26] has as its target Serine/threonine-protein kinase 4 (Homo sapiens) (UniProt Q13043). As to conditions: Compound concentration 1000.0 nM.
Experiment [27] concerns the target Focal adhesion kinase 1 (Homo sapiens) (UniProt Q05397). The settings on record: Compound concentration 1000.0 nM.
Experiment [28] has as its target Protein kinase C iota type (Homo sapiens) (UniProt P41743). As to conditions: Compound concentration 1000.0 nM.
Experiment [29] has as its system Tyrosine-protein kinase ABL1 (Homo sapiens), P00519 [T315I]. As to conditions: Compound concentration 1000.0 nM.
Experiment [30] has as its target Casein kinase I isoform gamma-1 (Homo sapiens) (UniProt Q9HCP0). As to conditions: Compound concentration 1000.0 nM.
Experiment [31] addresses Casein kinase II subunit alpha (Homo sapiens) (UniProt P68400). The settings on record: Compound concentration 1000.0 nM.
Experiment [32] addresses Cyclin-dependent kinase-like 5 (Homo sapiens) (UniProt O76039). As to conditions: Compound concentration 1000.0 nM.
Experiment [33] deals with Serine/threonine-protein kinase Nek9 (Homo sapiens) (UniProt Q8TD19). As to conditions: Compound concentration 1000.0 nM.
The target in experiment [34] is Mitogen-activated protein kinase 13 (Homo sapiens) (UniProt O15264). As to conditions: Compound concentration 1000.0 nM.
In experiment [35] the target is Serine/threonine-protein kinase N1 (Homo sapiens) (UniProt Q16512). The settings on record: Compound concentration 1000.0 nM.
The target in experiment [36] is Serine/threonine-protein kinase Nek6 (Homo sapiens) (UniProt Q9HC98). The settings on record: Compound concentration 1000.0 nM.
Experiment [37] deals with Serine/threonine-protein kinase STK11 (Homo sapiens) (UniProt Q15831). As to conditions: Compound concentration 1000.0 nM.
For experiment [38], the target named is High affinity nerve growth factor receptor (Homo sapiens) (UniProt P04629). The settings on record: Compound concentration 1000.0 nM.
For experiment [39], the target named is Serine/threonine-protein kinase 24 (Homo sapiens) (UniProt Q9Y6E0). The settings on record: Compound concentration 1000.0 nM.
The subject of experiment [40] is Phosphatidylinositol 4,5-bisphosphate 3-kinase catalytic subunit alpha isoform (Homo sapiens), P42336 [I800L]. As to conditions: Compound concentration 1000.0 nM.
The target of experiment [41] is Dual specificity mitogen-activated protein kinase kinase 6 (Homo sapiens) (UniProt P52564). The settings on record: Compound concentration 1000.0 nM.
For experiment [42], the target named is Tyrosine-protein kinase receptor Tie-1 (Homo sapiens) (UniProt P35590). As to conditions: Compound concentration 1000.0 nM.
Experiment [43] deals with Serine/threonine-protein kinase Chk2 (Homo sapiens) (UniProt O96017). As to conditions: Compound concentration 1000.0 nM.
Experiment [44] addresses Tyrosine-protein kinase ITK/TSK (Homo sapiens) (UniProt Q08881). As to conditions: Compound concentration 1000.0 nM.
The target of experiment [45] is Tyrosine-protein kinase ZAP-70 (Homo sapiens) (UniProt P43403). As to conditions: Compound concentration 1000.0 nM.

SMILES strings stand for the structures. pKi: −log10 of the molar value.

Chain of Dual specificity mitogen-activated protein kinase kinase 4 (Homo sapiens) (P45985 whole entry): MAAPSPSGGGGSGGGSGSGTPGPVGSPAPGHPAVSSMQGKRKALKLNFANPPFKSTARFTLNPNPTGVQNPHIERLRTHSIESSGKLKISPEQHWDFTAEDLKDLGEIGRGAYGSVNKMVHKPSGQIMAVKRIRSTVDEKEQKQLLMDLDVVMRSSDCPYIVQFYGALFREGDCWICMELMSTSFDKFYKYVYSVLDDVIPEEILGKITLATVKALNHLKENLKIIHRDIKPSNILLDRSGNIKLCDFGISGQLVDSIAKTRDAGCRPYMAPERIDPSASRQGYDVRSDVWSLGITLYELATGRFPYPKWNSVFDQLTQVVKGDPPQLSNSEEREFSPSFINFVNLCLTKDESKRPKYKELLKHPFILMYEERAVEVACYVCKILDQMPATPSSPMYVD
Chain of Serine/threonine-protein kinase Chk2 (Homo sapiens) (O96017 whole entry): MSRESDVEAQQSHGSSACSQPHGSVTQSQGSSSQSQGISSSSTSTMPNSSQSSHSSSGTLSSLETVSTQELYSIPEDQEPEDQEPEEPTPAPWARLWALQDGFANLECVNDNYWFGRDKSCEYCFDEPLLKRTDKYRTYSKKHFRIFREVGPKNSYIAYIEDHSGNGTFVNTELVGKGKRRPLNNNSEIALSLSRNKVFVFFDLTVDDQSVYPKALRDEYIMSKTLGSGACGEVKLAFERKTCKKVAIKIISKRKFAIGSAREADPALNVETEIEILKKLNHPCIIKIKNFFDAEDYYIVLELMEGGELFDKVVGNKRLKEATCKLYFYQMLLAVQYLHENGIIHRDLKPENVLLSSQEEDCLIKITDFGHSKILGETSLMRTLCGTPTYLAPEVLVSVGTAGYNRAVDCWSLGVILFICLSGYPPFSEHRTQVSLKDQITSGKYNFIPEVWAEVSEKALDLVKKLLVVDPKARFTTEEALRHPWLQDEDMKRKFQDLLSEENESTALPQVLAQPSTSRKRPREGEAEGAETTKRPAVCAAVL
Chain of 5-hydroxytryptamine receptor 2C (P28335 whole entry): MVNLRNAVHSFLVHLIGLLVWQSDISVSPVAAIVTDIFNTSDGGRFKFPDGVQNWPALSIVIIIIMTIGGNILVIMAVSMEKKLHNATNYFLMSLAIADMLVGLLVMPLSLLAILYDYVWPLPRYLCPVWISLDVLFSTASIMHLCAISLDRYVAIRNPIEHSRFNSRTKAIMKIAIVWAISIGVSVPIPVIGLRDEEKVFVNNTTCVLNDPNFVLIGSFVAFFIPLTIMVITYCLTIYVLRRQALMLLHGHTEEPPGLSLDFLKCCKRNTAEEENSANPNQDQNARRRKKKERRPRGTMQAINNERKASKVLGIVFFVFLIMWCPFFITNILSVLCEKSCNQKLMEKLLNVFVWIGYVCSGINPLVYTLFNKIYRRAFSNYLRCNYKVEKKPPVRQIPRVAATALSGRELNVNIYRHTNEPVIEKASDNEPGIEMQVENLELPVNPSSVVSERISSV
Chain of Dual specificity mitogen-activated protein kinase kinase 6 (Homo sapiens) (P52564 whole entry): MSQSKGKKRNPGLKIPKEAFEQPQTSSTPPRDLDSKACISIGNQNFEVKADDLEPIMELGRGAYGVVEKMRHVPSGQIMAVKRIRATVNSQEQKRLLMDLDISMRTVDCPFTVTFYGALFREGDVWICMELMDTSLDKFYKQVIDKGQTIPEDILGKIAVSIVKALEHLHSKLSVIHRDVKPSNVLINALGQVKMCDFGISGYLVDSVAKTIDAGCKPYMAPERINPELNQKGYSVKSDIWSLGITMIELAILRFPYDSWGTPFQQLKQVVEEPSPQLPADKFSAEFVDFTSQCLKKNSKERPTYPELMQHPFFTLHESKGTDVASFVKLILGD
Chain of Serine/threonine-protein kinase LATS1 (Homo sapiens) (O95835 whole entry): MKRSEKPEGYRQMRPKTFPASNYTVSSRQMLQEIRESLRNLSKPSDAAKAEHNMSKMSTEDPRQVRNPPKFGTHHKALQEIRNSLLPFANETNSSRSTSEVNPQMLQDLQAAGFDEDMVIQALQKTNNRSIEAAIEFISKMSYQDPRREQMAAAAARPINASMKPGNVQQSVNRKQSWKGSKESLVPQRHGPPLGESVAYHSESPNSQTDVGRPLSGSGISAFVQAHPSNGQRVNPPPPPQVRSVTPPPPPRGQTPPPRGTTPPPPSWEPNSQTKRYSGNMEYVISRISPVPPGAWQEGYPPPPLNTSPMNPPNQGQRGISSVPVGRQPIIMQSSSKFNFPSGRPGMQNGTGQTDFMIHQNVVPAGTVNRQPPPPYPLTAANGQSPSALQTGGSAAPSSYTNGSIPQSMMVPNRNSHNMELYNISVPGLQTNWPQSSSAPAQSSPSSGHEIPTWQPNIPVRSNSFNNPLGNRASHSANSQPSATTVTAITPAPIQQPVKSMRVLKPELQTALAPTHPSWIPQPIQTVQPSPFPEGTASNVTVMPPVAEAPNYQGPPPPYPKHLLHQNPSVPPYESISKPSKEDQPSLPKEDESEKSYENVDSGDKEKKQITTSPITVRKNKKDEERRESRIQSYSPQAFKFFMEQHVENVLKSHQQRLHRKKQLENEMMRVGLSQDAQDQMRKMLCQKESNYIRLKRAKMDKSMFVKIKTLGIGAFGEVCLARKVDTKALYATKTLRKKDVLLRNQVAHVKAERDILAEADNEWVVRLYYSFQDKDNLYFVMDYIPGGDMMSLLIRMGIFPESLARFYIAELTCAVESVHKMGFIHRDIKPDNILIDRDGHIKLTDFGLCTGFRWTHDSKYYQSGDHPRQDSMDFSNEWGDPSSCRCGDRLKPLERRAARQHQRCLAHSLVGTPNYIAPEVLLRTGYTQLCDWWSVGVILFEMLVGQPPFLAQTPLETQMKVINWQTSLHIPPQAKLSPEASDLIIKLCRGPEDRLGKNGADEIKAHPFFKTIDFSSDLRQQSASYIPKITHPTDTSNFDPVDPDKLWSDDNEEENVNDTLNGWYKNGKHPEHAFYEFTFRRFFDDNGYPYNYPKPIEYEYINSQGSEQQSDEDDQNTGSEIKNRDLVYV
Chain of Proto-oncogene tyrosine-protein kinase receptor Ret (Homo sapiens), P07949 [V804L] (P07949 whole entry V804L): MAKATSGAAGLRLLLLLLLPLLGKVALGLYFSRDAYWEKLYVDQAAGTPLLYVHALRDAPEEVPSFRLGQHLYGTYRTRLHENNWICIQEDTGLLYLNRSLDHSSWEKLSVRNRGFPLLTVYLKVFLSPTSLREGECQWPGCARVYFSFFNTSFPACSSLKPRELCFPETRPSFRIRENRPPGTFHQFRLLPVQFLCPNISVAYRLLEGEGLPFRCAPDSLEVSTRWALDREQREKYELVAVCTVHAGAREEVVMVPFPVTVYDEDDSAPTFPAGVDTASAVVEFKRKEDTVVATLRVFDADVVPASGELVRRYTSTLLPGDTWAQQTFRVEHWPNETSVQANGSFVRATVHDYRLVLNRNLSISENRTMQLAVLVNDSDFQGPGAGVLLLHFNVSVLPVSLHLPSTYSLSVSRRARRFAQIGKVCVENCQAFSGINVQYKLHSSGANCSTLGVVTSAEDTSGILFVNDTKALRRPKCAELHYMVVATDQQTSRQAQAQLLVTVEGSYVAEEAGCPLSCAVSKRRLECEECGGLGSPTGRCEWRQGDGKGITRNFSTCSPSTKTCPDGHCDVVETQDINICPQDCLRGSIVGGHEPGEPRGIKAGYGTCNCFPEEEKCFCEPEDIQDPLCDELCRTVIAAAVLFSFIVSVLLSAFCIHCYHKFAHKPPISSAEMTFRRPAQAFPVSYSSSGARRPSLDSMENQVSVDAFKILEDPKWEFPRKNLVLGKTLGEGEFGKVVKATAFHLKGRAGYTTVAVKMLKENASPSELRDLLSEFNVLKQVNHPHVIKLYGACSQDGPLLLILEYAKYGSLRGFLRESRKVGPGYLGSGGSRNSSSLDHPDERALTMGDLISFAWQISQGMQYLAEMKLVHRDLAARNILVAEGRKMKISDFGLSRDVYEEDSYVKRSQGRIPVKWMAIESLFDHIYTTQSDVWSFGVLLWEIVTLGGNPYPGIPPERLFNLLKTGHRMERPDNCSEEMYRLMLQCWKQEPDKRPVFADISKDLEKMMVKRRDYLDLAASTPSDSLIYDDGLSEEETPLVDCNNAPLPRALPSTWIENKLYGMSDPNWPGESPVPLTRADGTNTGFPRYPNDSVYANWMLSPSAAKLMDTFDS
Chain of 5-hydroxytryptamine receptor 1A (P08908 whole entry): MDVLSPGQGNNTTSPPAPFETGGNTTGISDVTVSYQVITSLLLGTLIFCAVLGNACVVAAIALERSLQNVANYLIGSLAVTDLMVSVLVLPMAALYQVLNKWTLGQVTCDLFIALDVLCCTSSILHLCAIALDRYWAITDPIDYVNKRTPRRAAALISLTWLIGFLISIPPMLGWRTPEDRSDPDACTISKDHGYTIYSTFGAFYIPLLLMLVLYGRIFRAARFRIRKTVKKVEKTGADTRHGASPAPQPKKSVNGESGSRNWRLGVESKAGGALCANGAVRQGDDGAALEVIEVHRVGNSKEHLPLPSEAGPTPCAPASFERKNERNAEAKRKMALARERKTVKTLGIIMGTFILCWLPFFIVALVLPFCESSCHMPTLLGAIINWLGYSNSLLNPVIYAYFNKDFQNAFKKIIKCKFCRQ
Chain of Serine/threonine-protein kinase 4 (Homo sapiens) (Q13043 whole entry): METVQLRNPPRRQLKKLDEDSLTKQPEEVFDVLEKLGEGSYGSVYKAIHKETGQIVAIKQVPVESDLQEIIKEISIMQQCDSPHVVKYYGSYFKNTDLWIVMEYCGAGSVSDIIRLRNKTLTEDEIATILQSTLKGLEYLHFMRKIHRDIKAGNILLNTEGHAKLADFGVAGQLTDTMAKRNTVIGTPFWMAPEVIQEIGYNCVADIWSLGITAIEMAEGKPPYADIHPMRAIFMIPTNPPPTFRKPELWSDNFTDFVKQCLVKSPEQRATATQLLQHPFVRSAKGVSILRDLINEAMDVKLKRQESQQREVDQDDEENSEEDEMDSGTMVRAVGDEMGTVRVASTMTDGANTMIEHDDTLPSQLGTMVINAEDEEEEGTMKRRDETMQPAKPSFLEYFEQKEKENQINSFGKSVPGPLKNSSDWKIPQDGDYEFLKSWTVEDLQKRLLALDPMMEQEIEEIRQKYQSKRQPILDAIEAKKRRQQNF

In general, pKi refers to −log10 of the Ki, conventionally taken in molar units. Turning to `CC(C)(C)OC(=O)N1CCCC1CNC1CCC(c2cc(F)ccc2F)(S(=O)(=O)c2ccc(Cl)cc2)CC1` (stereo not given) [GSI-NC], the pKi in [1] was 5.56; in [2], 6.29.
With `O=S(=O)(NC1CCC(c2cc(F)ccc2F)(S(=O)(=O)c2ccc(Cl)cc2)CC1)C(F)(F)F` (stereo not given) [MRK-560], the residual activity in experiment [3] was 84%; in experiment [4] it was 100%; in [5], 100%; in experiment [6], 76%; in [7], 88%; in experiment [8] it was 100%. For the same molecule, the residual activity in experiment [9] was 98%; in [10] it was 95%; in experiment [11], 100%; in experiment [12] it was 100%; in experiment [13], 100%; in [14], 78%. Besides, the residual activity was 100% in experiment [15]; 99% in experiment [16]; 100% in [17]; 95% in experiment [18]; 99% in experiment [19]; 93% in experiment [20]. Besides, the residual activity in experiment [21] was 94%; in experiment [22] it was 100%; in experiment [23] it was 100%; in experiment [24], 100%; in experiment [25] it was 100%; in experiment [26] it was 100%. For the same molecule, the residual activity was 90% in [27]; 100% in experiment [28]; 90% in experiment [29]; 86% in experiment [30]; 85% in [31]; 87% in experiment [32]. Moreover, the residual activity was 100% in experiment [33]; 100% in [34]; 100% in [35]; 100% in [36]; 100% in [37]; 76% in experiment [38]. The residual activity in experiment [39] is 99%; in experiment [40] it was 98%; in experiment [41], 100%; in experiment [42] it was 100%; in [43], 100%; in [44], 97%. Further, the residual activity in experiment [45] was 100%.
